The source of these data is patent US12521393B2, “Cytotoxicity targeting chimeras for CCR2-expressing cells” (GLAXOSMITHKLINE INTELLECTUAL PROPERTY DEVELOPMENT LIMITED, priority 2021, dated 2026).

This assay deals with endogenous target monocytes in human PBMC. Description: PBMC ex vivo monocyte depletion flow cytometry assay (Example 200). Format: cell-based. The conditions noted are these: with anti-cotinine antibody (SEQ ID NO: 11/12), 18-24 hours, EC50 in molar, read-out: Ex Vivo Depletion Assay pEC50 (converted). In outline:
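Monocyte depletion is reported as pEC50, averaged or given individually across runs, and read by flow cytometry staining CD45, CD14 and CD4 with a viability dye. Compounds, diluted four-fold over 11 points from 1 mM DMSO stocks, were combined with 30 μg/mL Fc-enhanced anti-cotinine antibody and human PBMC, then incubated 18-24 h at 37° C.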
Take `CC(C)N(C)[C@@H]1CC[C@H](N2CC[C@H](Nc3ncnc4ccc(C(F)(F)F)cc34)C2=O)[C@H](NC(=O)[C@H]2CC[C@H](NC(=O)CCCO[C@H]3CC[C@H](OCCNC(=O)[C@H]4CC(=O)N(C)[C@@H]4c4cccnc4)CC3)CC2)C1` [Example 1, (2S,3S)-N-(2-(((1R,4S)-4-(4-(((1R,4R)-4-(((1R,2S,5R)-5-(Isopropyl(methyl)amino)-2-((S)-2-oxo-3-((6-(trifluoromethyl)quinazolin-4-yl)amino)pyrrolidin-1-yl)cyclohexyl)carbamoyl)cyclohexyl)amino)-4-oxobutoxy)cyclohexyl)oxy)ethyl)-1-methyl-5-oxo-2-(pyridin-3-yl)pyrrolidine-3-carboxamide]: the EC50 was 1.58 nM.

Turning to `CC(C)N(C)[C@@H]1CC[C@H](N2CC[C@H](Nc3ncnc4ccc(C(F)(F)F)cc34)C2=O)[C@H](NC(=O)[C@H]2CC[C@@H](NC(=O)CCCO[C@H]3CC[C@H](OCCNC(=O)[C@H]4CC(=O)N(C)[C@@H]4c4cccnc4)CC3)CC2)C1` [Example 5, (2S,3S)-N-(2-(((1R,4S)-4-(4-(((1S,4S)-4-(((1R,2S,5R)-5-(Isopropyl(methyl)amino)-2-((S)-2-oxo-3-((6-(trifluoromethyl)quinazolin-4-yl)amino)pyrrolidin-1-yl)cyclohexyl)carbamoyl)cyclohexyl)amino)-4-oxobutoxy)cyclohexyl)oxy)ethyl)-1-methyl-5-oxo-2-(pyridin-3-yl)pyrrolidine-3-carboxamide], the EC50 was 0.398 nM.

Regarding `CC(C)N(C)[C@@H]1CC[C@H](N2CC[C@H](Nc3ncnc4ccc(C(F)(F)F)cc34)C2=O)[C@H](NC(=O)CCOCCNC(=O)CCCO[C@H]2CC[C@H](OCCNC(=O)[C@H]3CC(=O)N(C)[C@@H]3c3cccnc3)CC2)C1` [Example 7, (2S,3S)-N-(2-(((1r,4S)-4-(4-((2-(3-(((1R,2S,5R)-5-(Isopropyl(methyl)amino)-2-((S)-2-oxo-3-((6-(trifluoromethyl)quinazolin-4-yl)amino)pyrrolidin-1-yl)cyclohexyl)amino)-3-oxopropoxy)ethyl)amino)-4-oxobutoxy)cyclohexyl)oxy)ethyl)-1-methyl-5-oxo-2-(pyridin-3-yl)pyrrolidine-3-carboxamide], the EC50 was 0.501 nM.

On to `CC(C)N(C)[C@@H]1CC[C@H](N2CC[C@H](Nc3ncnc4ccc(C(F)(F)F)cc34)C2=O)[C@H](NC(=O)[C@H]2CC[C@@H](NC(=O)CCOCCOCCNC(=O)CCNC(=O)[C@H]3CC(=O)N(C)[C@@H]3c3cccnc3)CC2)C1` [Example 16, (2S,3S)-N-(3-((2-(2-(3-(((1S,4s)-4-(((1R,2S,5R)-5-(Isopropyl(methyl)amino)-2-((S)-2-oxo-3-((6-(trifluoromethyl)quinazolin-4-yl)amino)pyrrolidin-1-yl)cyclohexyl)carbamoyl)cyclohexyl)amino)-3-oxopropoxy)ethoxy)ethyl)amino)-3-oxopropyl)-1-methyl-5-oxo-2-(pyridin-3-yl)pyrrolidine-3-carboxamide], for which the EC50 is 0.316 nM.

Regarding `CC(C)N(C)[C@@H]1CC[C@H](N2CC[C@H](Nc3ncnc4ccc(C(F)(F)F)cc34)C2=O)[C@H](NC(=O)[C@H]2CC[C@@H](NC(=O)CCCC(=O)NCCCOCCCNC(=O)[C@H]3CC(=O)N(C)[C@@H]3c3cccnc3)CC2)C1` [Example 18, N^1-((1S,4s)-4-(((1R,2S,5R)-5-(Isopropyl(methyl)amino)-2-((S)-2-oxo-3-((6-(trifluoromethyl)quinazolin-4-yl)amino)pyrrolidin-1-yl)cyclohexyl)carbamoyl)cyclohexyl)-N^5-(3-(3-((2S,3S)-1-methyl-5-oxo-2-(pyridin-3-yl)pyrrolidine-3-carboxamido)propoxy)propyl)glutaramide], the EC50 was 0.501 nM.

Consider `CC(C)N(C)[C@@H]1CC[C@H](N2CC[C@H](Nc3ncnc4ccc(C(F)(F)F)cc34)C2=O)[C@H](NC(=O)[C@H]2CC[C@H](NC(=O)CCCC(=O)NCCCOCCCNC(=O)[C@H]3CC(=O)N(C)[C@@H]3c3cccnc3)CC2)C1` [Example 19, N1-((1R,4r)-4-(((1R,2S,5R)-5-(Isopropyl(methyl)amino)-2-((S)-2-oxo-3-((6-(trifluoromethyl)quinazolin-4-yl)amino)pyrrolidin-1-yl)cyclohexyl)carbamoyl)cyclohexyl)-N5-(3-(3-((2S,3S)-1-methyl-5-oxo-2-(pyridin-3-yl)pyrrolidine-3-carboxamido)propoxy)propyl)glutaramide], for which the EC50 is 0.794 nM.

Regarding `CN1C(=O)C[C@H](C(=O)NCCOCCOCCOCCC(=O)N[C@H]2CC[C@@H](C(=O)N[C@@H]3C[C@H](NC(C)(C)C)CC[C@@H]3N3CC[C@H](Nc4ncnc5ccc(C(F)(F)F)cc45)C3=O)CC2)[C@H]1c1cccnc1` [Example 23, (2S,3S)-N-(2-(2-(2-(3-(((1S,4s)-4-(((1R,2S,5R)-5-(tert-Butylamino)-2-((S)-2-oxo-3-((6-(trifluoromethyl)quinazolin-4-yl)amino)pyrrolidin-1-yl)cyclohexyl)carbamoyl)cyclohexyl)amino)-3-oxopropoxy)ethoxy)ethoxy)ethyl)-1-methyl-5-oxo-2-(pyridin-3-yl)pyrrolidine-3-carboxamide], the EC50 was 2 nM.

As to `CC(C)N(C)[C@@H]1CC[C@H](N2CC[C@H](Nc3ncnc4ccc(C(F)(F)F)cc34)C2=O)[C@H](NC(=O)[C@H]2C[C@@H](NC(=O)CCOCCOCCOCCNC(=O)[C@H]3CC(=O)N(C)[C@@H]3c3cccnc3)C2)C1` [Example 24, (2S,3S)-N-(2-(2-(2-(3-(((1S,3s)-3-(((1R,2S,5R)-5-(Isopropyl(methyl)amino)-2-((S)-2-oxo-3-((6-(trifluoromethyl)quinazolin-4-yl)amino)pyrrolidin-1-yl)cyclohexyl)carbamoyl)cyclobutyl)amino)-3-oxopropoxy)ethoxy)ethoxy)ethyl)-1-methyl-5-oxo-2-(pyridin-3-yl)pyrrolidine-3-carboxamide], the EC50 was 1.26 nM.

Regarding `CC(C)N(C)[C@@H]1CC[C@H](N2CC[C@H](Nc3ncnc4ccc(C(F)(F)F)cc34)C2=O)[C@H](NC(=O)[C@H]2CC[C@@H](NC(=O)CCOCCOCCOCCNC(=O)[C@H]3CC(=O)N(C)[C@@H]3c3cccnc3)CC2)C1` [Example 28, (2S,3S)-N-(2-(2-(2-(3-(((1S,4s)-4-(((1R,2S,5R)-5-(Isopropyl(methyl)amino)-2-((S)-2-oxo-3-((6-(trifluoromethyl)quinazolin-4-yl)amino)pyrrolidin-1-yl)cyclohexyl)carbamoyl)cyclohexyl)amino)-3-oxopropoxy)ethoxy)ethoxy)ethyl)-1-methyl-5-oxo-2-(pyridin-3-yl)pyrrolidine-3-carboxamide], the EC50 was 1 nM.

Take `CC(C)N(C)[C@@H]1CC[C@H](N2CC[C@H](Nc3ncnc4ccc(C(F)(F)F)cc34)C2=O)[C@H](NC(=O)[C@H]2CC[C@H](NC(=O)CCOCCOCCOCCNC(=O)[C@H]3CC(=O)N(C)[C@@H]3c3cccnc3)CC2)C1` [Example 30, (2S,3S)-N-(2-(2-(2-(3-(((1R,4r)-4-(((1R,2S,5R)-5-(Isopropyl(methyl)amino)-2-((S)-2-oxo-3-((6-(trifluoromethyl)quinazolin-4-yl)amino)pyrrolidin-1-yl)cyclohexyl)carbamoyl)cyclohexyl)amino)-3-oxopropoxy)ethoxy)ethoxy)ethyl)-1-methyl-5-oxo-2-(pyridin-3-yl)pyrrolidine-3-carboxamide]: the EC50 is 2.51 nM.

Regarding `CCN1C(=O)C[C@H](C(=O)NCCOCCOCCOCCC(=O)N[C@H]2CC[C@@H](C(=O)N[C@@H]3C[C@H](N(C)C(C)C)CC[C@@H]3N3CC[C@H](Nc4ncnc5ccc(C(F)(F)F)cc45)C3=O)CC2)[C@H]1c1cccnc1` [Example 34, (2S,3S)-1-ethyl-N-(2-(2-(2-(3-((cis-4-(((1R,2S,5R)-5-(isopropyl(methyl)amino)-2-((S)-2-oxo-3-((6-(trifluoromethyl)quinazolin-4-yl)amino)pyrrolidin-1-yl)cyclohexyl)carbamoyl)cyclohexyl)amino)-3-oxopropoxy)ethoxy)ethoxy)ethyl)-5-oxo-2-(pyridin-3-yl)pyrrolidine-3-carboxamide], the EC50 was 1.58 nM.

As to `CCN1C(=O)C[C@H](C(=O)NCCOCCOCCOCCC(=O)N[C@H]2CC[C@@H](C(=O)N[C@@H]3C[C@H](NC(C)(C)C)CC[C@@H]3N3CC[C@H](Nc4ncnc5ccc(C(F)(F)F)cc45)C3=O)CC2)[C@H]1c1cccnc1` [Example 35, (2S,3S)-N-(2-(2-(2-(3-(((1S,4s)-4-(((1R,2S,5R)-5-(tert-butylamino)-2-((S)-2-oxo-3-((6-(trifluoromethyl)quinazolin-4-yl)amino)pyrrolidin-1-yl)cyclohexyl)carbamoyl)cyclohexyl)amino)-3-oxopropoxy)ethoxy)ethoxy)ethyl)-1-ethyl-5-oxo-2-(pyridin-3-yl)pyrrolidine-3-carboxamide], the EC50 was 0.631 nM.

On to `CC(C)N(C)[C@@H]1CC[C@H](N2CC[C@H](Nc3ncnc4ccc(C(F)(F)F)cc34)C2=O)[C@H](NC(=O)C2CCC(NC(=O)CCOCCNC(=O)CCOCCNC(=O)[C@H]3CC(=O)N(C)[C@@H]3c3cccnc3)CC2)C1` (stereo partly drawn) [Example 48, (2S,3S)-N-(2-(3-((2-(3-(((1R,4r)-4-(((1R,2S,5R)-5-(Isopropyl(methyl)amino)-2-((S)-2-oxo-3-((6-(trifluoromethyl)quinazolin-4-yl)amino)pyrrolidin-1-yl)cyclohexyl)carbamoyl)cyclohexyl)amino)-3-oxopropoxy)ethyl)amino)-3-oxopropoxy)ethyl)-1-methyl-5-oxo-2-(pyridin-3-yl)pyrrolidine-3-carboxamide], for which the EC50 was 2 nM.

In the case of `CC(C)N(C)[C@@H]1CC[C@H](N2CC[C@H](Nc3ncnc4ccc(C(F)(F)F)cc34)C2=O)[C@H](NC(=O)[C@H]2C[C@@H](NC(=O)CCOCCOCCNC(=O)CCNC(=O)[C@H]3CC(=O)N(C)[C@@H]3c3cccnc3)C2)C1` [Example 49, (2S,3S)-N-(3-((2-(2-(3-(((1S,3s)-3-(((1R,2S,5R)-5-(Isopropyl(methyl)amino)-2-((S)-2-oxo-3-((6-(trifluoromethyl)quinazolin-4-yl)amino)pyrrolidin-1-yl)cyclohexyl)carbamoyl)cyclobutyl)amino)-3-oxopropoxy)ethoxy)ethyl)amino)-3-oxopropyl)-1-methyl-5-oxo-2-(pyridin-3-yl)pyrrolidine-3-carboxamide], the EC50 was 0.501 nM.
